{
  "source": "patent US20090221666A1",
  "about": "“STILBENE DERIVATIVES AND METHODS OF INHIBITING CANCER CELL GROWTH AND MICROBIAL GROWTH” (priority 2005, published 2009)",
  "key": {"[1]": {"tested_on": "human cancer cell lines and murine P388", "experiment": "cells", "format": "cell-based", "details": "Mus musculus, P388, read-out: Mean", "procedure": "(§1) Cytotoxicity assays were performed by the sulforhodamine B method, in which inhibition of formation of cellular protein is measured (Ref. 42). The mitotic index of MCF-7 breast cancer cells was determined as described previously (Ref. 27), except that cells were incubated in the presence of drug for 16 h prior to addition of the DNA stain."}, "[2]": {"tested_on": "Bovine brain tubulin (vinca domain)", "experiment": "Inhibition of [3H]vinblastine binding to tubulin", "details": "5.0 μM tubulin, 5 μM [3H]vinblastine", "procedure": "(§2) Bovine brain tubulin was prepared and the tubulin assembly and colchicine binding assays were performed as described previously. In the assembly assay, reaction mixtures contained 1.0 mg/mL (10 μM) tubulin and varying concentrations of potential inhibitors. In the colchicine binding assay reaction mixtures contained 0.1 mg/mL (1.0 μM) tubulin, 5.0 μM [^3H]colchicine, and potential inhibitor as indicated. The vinblastine binding assay was performed as described previously for GTP binding by centrifugal gel filtration, except that a Beckman Allegra 6KR centrifuge equipped with a GH-3.8A swinging bucket rotor was used and the syringe-columns were centrifuged at 2,000 rpm (Ref. 38-41). Reaction mixtures contained 0.5 mg/mL (5.0 μM) tubulin, 5 μM [^3H]vinblastine, potential inhibitor as indicated, 0.5 mM MgCl2, 0.1 M 4-morpholineethanesulfonate (1.0 M stock solution adjusted to pH 6.9 with NaOH, and 4% (v/v) dimethyl sulfoxide. Incubation (30 min) and centrifugal gel filtration were performed at room temperature (20-22° C.)."}, "[3]": {"tested_on": "Bovine brain tubulin (colchicine site)", "experiment": "Inhibition of [3H]colchicine binding to tubulin", "details": "1.0 μM tubulin, 5.0 μM [3H]colchicine", "procedure": "as §2"}, "[4]": {"tested_on": "Bovine brain tubulin", "experiment": "Inhibition of tubulin assembly", "format": "biochemical", "details": "1.0 mg/mL (10 μM) tubulin; read-out: Inhibition of tubulin assembly IC50 (μM) ± SD", "procedure": "as §2"}, "[5]": {"tested_on": "Enterococcus faecalis ATCC 29212", "experiment": "Broth microdilution assay, Enterococcus faecalis", "format": "cell-based", "text": "(§3) Compounds were screened in broth microdilution assays according to National Committee for Clinical Laboratory Standards (Ref. 43-44). Assays were repeated at least twice on separate days."}, "[6]": {"tested_on": "P388 lymphocytic leukemia cell line", "format": "cell-based", "details": "murine P388 lymphocytic leukemia cell line", "procedure": "as §1"}, "[7]": {"experiment": "Solubility in distilled water", "format": "physicochemical"}, "[8]": {"tested_on": "SF-295", "experiment": "cells", "format": "cell-based, human", "procedure": "as §1"}, "[9]": {"tested_on": "BXPC-3", "experiment": "cells", "format": "cell-based, human", "procedure": "as §1"}, "[10]": {"tested_on": "DU145", "experiment": "cells", "format": "cell-based, human", "details": "DU145", "procedure": "as §1"}, "[11]": {"tested_on": "NCI-H460", "experiment": "cells", "format": "cell-based, human", "procedure": "as §1"}, "[12]": {"tested_on": "KM20L2", "experiment": "cells", "format": "cell-based, human", "details": "KM20L2", "procedure": "as §1"}, "[13]": {"tested_on": "MCF-7", "experiment": "cells", "format": "cell-based, human", "details": "MCF-7", "procedure": "as §1"}, "[14]": {"tested_on": "Neisseria gonorrhoeae ATCC 49226", "experiment": "Broth microdilution assay, Neisseria gonorrhoeae", "format": "cell-based", "text": "as §3"}},
  "data": [
    {"compound": "COc1ccc(/C=C\\c2cc(OC)c3c(c2)OCO3)cc1N", "note": "[Compound 1a, 3,4-Methylenedioxy-5,4^1-Dimethoxy-3^1-Amino-Z-Stilbene, reference compound]", "values": [
      {"measurement": "IC50", "setting": "[1]", "value": 0.013, "unit": "µg/mL"}
    ]},
    {"compound": "COc1ccc(C=Cc2cc(OC)c3c(c2)OCO3)cc1N", "note": "[Compound 1b]", "values": [
      {"measurement": "Inhibition of vinblastine binding % Inhibition ± SD", "setting": "[2]; 10 μM inhibitor", "value": 0, "unit": "%"},
      {"measurement": "Inhibition of vinblastine binding % Inhibition ± SD", "setting": "[2]; 80 μM inhibitor", "value": 0, "unit": "%"},
      {"measurement": "Inhibition of colchicine binding % Inhibition ± SD", "setting": "[3]; 2 μM inhibitor", "value": "85 ± 3", "unit": "%"}
    ]},
    {"compound": "COc1ccc(C=Cc2cc(OC)c(OC)c(OC)c2)cc1O", "note": "[Compound 2g, combretastatin A-4]", "values": [
      {"measurement": "Inhibition of vinblastine binding % Inhibition ± SD", "setting": "[2]; 10 μM inhibitor", "value": 0, "unit": "%"},
      {"measurement": "Inhibition of vinblastine binding % Inhibition ± SD", "setting": "[2]; 80 μM inhibitor", "value": 0, "unit": "%"},
      {"measurement": "IC50", "setting": "[4]", "value": "[…]"},
      {"measurement": "Inhibition of colchicine binding % Inhibition ± SD", "setting": "[3]; 2 μM inhibitor", "value": "98 ± 0.4", "unit": "%"}
    ]},
    {"compound": "COc1ccc(/C=C\\c2cc(OC)c3c(c2)OCO3)cc1NC(=O)[C@@H](N)Cc1ccc(OP(=O)(O)O)cc1", "note": "[Compound 3a, 3,4-Methylenedioxy-5,4′-dimethoxy-3′-(O-phosphoryl-N^α-L-Tyr)-amido-Z-stilbene]", "values": [
      {"measurement": "MIC", "setting": "[5]", "value": 64, "unit": "µg/mL"},
      {"measurement": "Leukemia P388 ED50", "setting": "[6]", "value": ">10", "unit": "µg/mL"},
      {"measurement": "Solubility", "setting": "[7]; 1 mL distilled water at 25° C.", "value": "<0.1", "unit": "mg/mL"},
      {"measurement": "water solubility (in words)", "setting": "[7]; water", "value": "only sparing water solubility"},
      {"measurement": "CNS SF-295 GI50", "setting": "[8]", "value": ">1", "unit": "µg/mL"},
      {"measurement": "Pancreas BXPC-3 GI50", "setting": "[9]", "value": ">1", "unit": "µg/mL"},
      {"measurement": "Prostate DU145 GI50", "setting": "[10]", "value": ">1", "unit": "µg/mL"},
      {"measurement": "Lung-NSC NCI-H460 GI50", "setting": "[11]", "value": ">1", "unit": "µg/mL"},
      {"measurement": "Colon KM20L2 GI50", "setting": "[12]", "value": ">1", "unit": "µg/mL"},
      {"measurement": "Breast MCF-7 GI50", "setting": "[13]", "value": ">1", "unit": "µg/mL"},
      {"measurement": "MIC", "setting": "[14]", "value": 0.125, "unit": "µg/mL"}
    ]},
    {"compound": "CC[C@H](C)[C@@H]([C@@H](CC(=O)N1CCC[C@H]1[C@H](OC)[C@@H](C)C(=O)N[C@@H](Cc1ccccc1)c1nccs1)OC)N(C)C(=O)[C@@H](NC(=O)[C@H](C(C)C)N(C)C)C(C)C", "note": "[Compound 4a, Dolastatin 10]", "values": [
      {"measurement": "Inhibition of vinblastine binding % Inhibition ± SD", "setting": "[2]; 10 μM inhibitor", "value": "96 ± 0.7", "unit": "%"},
      {"measurement": "Inhibition of colchicine binding % Inhibition ± SD", "setting": "[3]; 2 μM inhibitor", "value": "13 ± 5", "unit": "%"}
    ]},
    {"compound": "CC[C@H](C)[C@@H]([C@@H](CC(=O)N1CCC[C@H]1[C@H](OC)[C@@H](C)C(=O)O)OC)N(C)C(=O)[C@@H](NC(=O)[C@H](C(C)C)N(C)C)C(C)C", "note": "[Compound 4b, Dov-Val-Dil-Dap]", "values": [
      {"measurement": "Inhibition of vinblastine binding % Inhibition ± SD", "setting": "[2]; 10 μM inhibitor", "value": "16 ± 6", "unit": "%"},
      {"measurement": "Inhibition of vinblastine binding % Inhibition ± SD", "setting": "[2]; 80 μM inhibitor", "value": "68 ± 0.4", "unit": "%"},
      {"measurement": "Inhibition of colchicine binding % Inhibition ± SD", "setting": "[3]; 50 μM inhibitor", "value": "5.2 ± 3", "unit": "%"}
    ]},
    {"compound": "COc1ccc(/C=C\\c2cc(OC)c3c(c2)OCO3)cc1NC(=O)[C@H](Cc1ccc(OP(=O)(OCc2ccccc2)OCc2ccccc2)cc1)NP(=O)(OCc1ccccc1)OCc1ccccc1", "note": "[Compound 5, 3,4-Methylenedioxy-5,4′-dimethoxy-3′-[O,N^α-di(bis-benzylphosphoryl)-L-Tyr]-amido-Z-stilbene]", "values": [
      {"measurement": "Leukemia P388 ED50", "setting": "[6]", "value": ">10", "unit": "µg/mL"}
    ]}
  ]
}
